Results on one compound are retold here after patent publication US12409172B2, “Dosage regimen” (UNION therapeutics A/S, priority 2023, dated 2025).

The data set has as its system adults with moderate to severe atopic dermatitis. The experiment in a line: Phase 2b study in atopic dermatitis (Example 8): treatment emergent adverse events. The class given is in vivo, human. The text has this: The exploratory objectives are to: • Evaluate pharmacokinetic (PK) and pharmacodynamic parameters relevant to AD • Evaluate the effect of orismilast on the pulmonary status and course of the disease in patients with asthma Primary Endpoint • Percentage change in Eczema Area and Severity Index (EASI) score from Baseline at Week 16. […]

Take `O=C(Cc1c(Cl)c[n+]([O-])cc1Cl)c1ccc(OC(F)F)c2c1OC1(CCS(=O)(=O)CC1)O2` [orismilast, 2-(3,5-dichloro-1-oxidopyridin-1-ium-4-yl)-1-[7-(difluoromethoxy)-1′,1′-dioxospiro[1,3-benzodioxole-2,4′-thiane]-4-yl]ethanone]: the “patients experiencing any Treatment Emergent Adverse Event (TEAE) through Week 16” value (20 mg BID) is 76%, the “patients experiencing any Treatment Emergent Adverse Event (TEAE) through Week 16” value (30 mg BID) is listed as 79% and the “patients experiencing any Treatment Emergent Adverse Event (TEAE) through Week 16” value (40 mg BID) turned out to be 86%.
